Measured values reported in patent publication US9579314B2 (priority 2015, dated 2017).

Assays:
Human M3 receptor = Human M3 receptor (Homo sapiens, UniProt P20309); details: read-out: M3 binding affinity
Human β2 adrenoceptor = Human β2 adrenoceptor (Homo sapiens, UniProt P07550); details: read-out: B2 binding affinity
Chain of Human β2 adrenoceptor (P07550 whole entry): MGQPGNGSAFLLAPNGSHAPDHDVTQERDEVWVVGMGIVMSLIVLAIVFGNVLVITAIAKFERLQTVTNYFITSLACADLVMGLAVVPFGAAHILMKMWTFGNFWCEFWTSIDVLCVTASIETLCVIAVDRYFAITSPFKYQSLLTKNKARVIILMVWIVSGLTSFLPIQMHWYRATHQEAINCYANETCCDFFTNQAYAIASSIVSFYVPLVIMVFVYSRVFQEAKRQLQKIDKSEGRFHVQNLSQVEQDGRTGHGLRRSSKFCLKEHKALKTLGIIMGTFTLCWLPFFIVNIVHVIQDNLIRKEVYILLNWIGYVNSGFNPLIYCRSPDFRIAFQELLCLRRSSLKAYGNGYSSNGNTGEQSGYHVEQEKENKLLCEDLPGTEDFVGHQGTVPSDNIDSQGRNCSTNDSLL

Chain of Human M3 receptor (P20309 whole entry): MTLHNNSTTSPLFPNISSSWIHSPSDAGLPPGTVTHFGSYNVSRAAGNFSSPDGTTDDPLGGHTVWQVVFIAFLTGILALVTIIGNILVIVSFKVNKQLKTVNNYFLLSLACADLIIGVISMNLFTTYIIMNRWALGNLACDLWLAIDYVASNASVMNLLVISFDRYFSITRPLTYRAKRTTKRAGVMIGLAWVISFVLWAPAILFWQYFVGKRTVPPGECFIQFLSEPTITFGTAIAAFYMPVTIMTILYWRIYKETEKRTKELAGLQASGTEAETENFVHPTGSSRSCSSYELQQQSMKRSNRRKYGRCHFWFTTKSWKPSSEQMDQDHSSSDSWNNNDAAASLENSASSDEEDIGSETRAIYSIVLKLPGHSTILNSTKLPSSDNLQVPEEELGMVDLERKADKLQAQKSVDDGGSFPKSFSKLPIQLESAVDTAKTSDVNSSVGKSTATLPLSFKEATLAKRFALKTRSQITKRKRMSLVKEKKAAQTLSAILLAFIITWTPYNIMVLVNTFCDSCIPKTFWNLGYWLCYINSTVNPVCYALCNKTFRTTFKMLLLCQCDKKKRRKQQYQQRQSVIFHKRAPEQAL

Row | SMILES | IC50 (Human M3 receptor) [nM] | IC50 (Human β2 adrenoceptor) [nM]
1 | Cc1ccc(C(O)(C(=O)OCC2CCN(Cc3ccccc3)CC2)c2cccc(OCCCCCNC[C@H](O)c3ccc(O)c4[nH]c(=O)ccc34)c2)cc1 (stereo partly drawn) [Compound 2, (1-benzylpiperidin-4-yl)methyl 2-hydroxy-2-(3-((5-(((R)-2-hydroxy-2-(8-hydroxy-2-oxo-1,2-dihydroquinolin-5-yl)ethyl)amino)pentyl)oxy)phenyl)-2-(p-tolyl)acetate] | 0.3 to 3 | 0.3 to 3
2 | O=C(OCC1CCN(Cc2ccccc2)CC1)C(O)(c1ccc(F)cc1)c1cccc(OCCCCCNC[C@H](O)c2ccc(O)c3[nH]c(=O)ccc23)c1 (stereo partly drawn) [Compound 3, (1-benzylpiperidin-4-yl)methyl 2-(4-fluorophenyl)-2-hydroxy-2-(3-((5-(((R)-2-hydroxy-2-(8-hydroxy-2-oxo-1,2-dihydroquinolin-5-yl)ethyl)amino)pentyl)oxy)phenyl)acetate] | 0.3 to 3 | < 0.3
3 | O=C(OCC1CCN(Cc2ccccc2)CC1)C(O)(c1cccc(F)c1)c1cccc(OCCCCCNC[C@H](O)c2ccc(O)c3[nH]c(=O)ccc23)c1 (stereo partly drawn) [Compound 4, (1-benzylpiperidin-4-yl)methyl 2-(3-fluorophenyl)-2-hydroxy-2-(3-((5-(((R)-2-hydroxy-2-(8-hydroxy-2-oxo-1,2-dihydroquinolin-5-yl)ethyl)amino)pentyl)oxy)phenyl)acetate] | 0.3 to 3 | < 0.3
4 | Cc1cccc(C(O)(C(=O)OCC2CCN(Cc3ccccc3)CC2)c2cccc(OCCCCCNC[C@H](O)c3ccc(O)c4[nH]c(=O)ccc34)c2)c1 (stereo partly drawn) [Compound 5, (1-benzylpiperidin-4-yl)methyl 2-hydroxy-2-(3-((5-(((R)-2-hydroxy-2-(8-hydroxy-2-oxo-1,2-dihydroquinolin-5-yl)ethyl)amino)pentyl)oxy)phenyl)-2-(m-tolyl)acetate] | 0.3 to 3 | 0.3 to 3
5 | O=C(OCC1CCN(Cc2ccccc2)CC1)C(O)(c1cccc(OCCCCCNC[C@H](O)c2ccc(O)c3[nH]c(=O)ccc23)c1)c1ccccc1Cl (stereo partly drawn) [Compound 6, (1-benzylpiperidin-4-yl)methyl 2-(2-chlorophenyl)-2-hydroxy-2-(3-((5-(((R)-2-hydroxy-2-(8-hydroxy-2-oxo-1,2-dihydroquinolin-5-yl)ethyl)amino)pentyl)oxy)phenyl)acetate] | > 3 | < 0.3
6 | Cc1ccccc1C(O)(C(=O)OCC1CCN(Cc2ccccc2)CC1)c1cccc(OCCCCCNC[C@H](O)c2ccc(O)c3[nH]c(=O)ccc23)c1 (stereo partly drawn) [Compound 7, (1-benzylpiperidin-4-yl)methyl 2-hydroxy-2-(3-((5-(((R)-2-hydroxy-2-(8-hydroxy-2-oxo-1,2-dihydroquinolin-5-yl)ethyl)amino)pentyl)oxy)phenyl)-2-(o-tolyl)acetate] | > 3 | 0.3 to 3
7 | CCc1ccccc1C(O)(C(=O)OCC1CCN(Cc2ccccc2)CC1)c1cccc(OCCCCCNC[C@H](O)c2ccc(O)c3[nH]c(=O)ccc23)c1 (stereo partly drawn) [Compound 8, (1-benzylpiperidin-4-yl)methyl 2-(2-ethylphenyl)-2-hydroxy-2-(3-((5-(((R)-2-hydroxy-2-(8-hydroxy-2-oxo-1,2-dihydroquinolin-5-yl)ethyl)amino)pentyl)oxy)phenyl)acetate] | > 3 | 0.3 to 3
8 | O=C(OCC1CCN(Cc2ccccc2)CC1)C(O)(c1cccc(OCCCCCNC[C@H](O)c2ccc(O)c3[nH]c(=O)ccc23)c1)c1cccs1 (stereo partly drawn) [Compound 9, (1-benzylpiperidin-4-yl)methyl 2-hydroxy-2-(3-((5-(((R)-2-hydroxy-2-(8-hydroxy-2-oxo-1,2-dihydroquinolin-5-yl)ethyl)amino)pentyl)oxy)phenyl)-2-(thiophen-2-yl)acetate] | 0.3 to 3 | < 0.3
9 | O=C(OCC1CCN(Cc2ccccc2)CC1)C(O)(c1cccc(OCCCCCNC[C@H](O)c2ccc(O)c3[nH]c(=O)ccc23)c1)C1CCCCC1 (stereo partly drawn) [Compound 10, (1-benzylpiperidin-4-yl)methyl 2-cyclohexyl-2-hydroxy-2-(3-((5-(((R)-2-hydroxy-2-(8-hydroxy-2-oxo-1,2-dihydroquinolin-5-yl)ethyl)amino)pentyl)oxy)phenyl)acetate] | 0.3 to 3 | 0.3 to 3
10 | CCc1cccc(C(O)(C(=O)OCC2CCN(Cc3ccccc3)CC2)c2cccc(OCCCCCNC[C@H](O)c3ccc(O)c4[nH]c(=O)ccc34)c2)c1 (stereo partly drawn) [Compound 11, (1-benzylpiperidin-4-yl)methyl 2-(3-ethylphenyl)-2-hydroxy-2-(3-((5-(((R)-2-hydroxy-2-(8-hydroxy-2-oxo-1,2-dihydroquinolin-5-yl)ethyl)amino)pentyl)oxy)phenyl)acetate] | < 0.3 | < 0.3
11 | O=C(OCC1CCN(Cc2ccccc2)CC1)[C@](O)(c1ccccc1)c1cccc(OCCCCCNC[C@H](O)c2ccc(O)c3[nH]c(=O)ccc23)c1 [Compound 13, (S)-(1-Benzylpiperidin-4-yl)methyl 2-hydroxy-2-(3-((5-(((R)-2-hydroxy-2-(8-hydroxy-2-oxo-1,2-dihydroquinolin-5-yl)ethyl)amino)pentyl)oxy)phenyl)-2-phenylacetate] | < 0.3 | < 0.3
12 | O=C(OCC1CCN(Cc2ccccc2)CC1)[C@@](O)(c1ccccc1)c1cccc(OCCCCCNC[C@H](O)c2ccc(O)c3[nH]c(=O)ccc23)c1 [Compound 14, (R)-(1-benzylpiperidin-4-yl)methyl 2-hydroxy-2-(3-((5-(((R)-2-hydroxy-2-(8-hydroxy-2-oxo-1,2-dihydroquinolin-5-yl)ethyl)amino)pentyl)oxy)phenyl)-2-phenylacetate] | > 3 | < 0.3
13 | CN1CCC(COC(=O)[C@](O)(c2ccccc2)c2cccc(OCCCCCNC[C@H](O)c3ccc(O)c4[nH]c(=O)ccc34)c2)CC1 [Compound 23, (S)-(1-methylpiperidin-4-yl)methyl 2-hydroxy-2-(3-((5-(((R)-2-hydroxy-2-(8-hydroxy-2-oxo-1,2-dihydroquinolin-5-yl)ethyl)amino)pentyl)oxy)phenyl)-2-phenylacetate] | 0.3 to 3 | 0.3 to 3
14 | CN1CCC(COC(=O)[C@@](O)(c2ccccc2)c2cccc(OCCCCCNC[C@H](O)c3ccc(O)c4[nH]c(=O)ccc34)c2)CC1 [Compound 24, (R)-(1-methylpiperidin-4-yl)methyl 2-hydroxy-2-(3-((5-(((R)-2-hydroxy-2-(8-hydroxy-2-oxo-1,2-dihydroquinolin-5-yl)ethyl)amino)pentyl)oxy)phenyl)-2-phenylacetate] | > 3 | < 0.3
15 | O=C(OCC1CCN(Cc2ccccc2)CC1)[C@](O)(c1ccccc1)c1cccc(OCCCCCCCNC[C@H](O)c2ccc(O)c3[nH]c(=O)ccc23)c1 [Compound 28, (S)-(1-benzylpiperidin-4-yl)methyl 2-hydroxy-2-(3-((7-(((R)-2-hydroxy-2-(8-hydroxy-2-oxo-1,2-dihydroquinolin-5-yl)ethyl)amino)heptyl)oxy)phenyl)-2-phenylacetate] | 0.3 to 3 | 0.3 to 3
16 | O=C(c1ccc(CCNC[C@H](O)c2ccc(O)c3[nH]c(=O)ccc23)cc1)N1CCC(COc2cccc([C@](O)(C(=O)OCC3CCN(Cc4ccccc4)CC3)c3ccccc3)c2)CC1 [Compound 31, (S)-(1-Benzylpiperidin-4-yl)methyl 2-hydroxy-2-(3-((1-(4-(2-(((R)-2-hydroxy-2-(8-hydroxy-2-oxo-1,2-dihydroquinolin-5-yl)ethyl)amino)ethyl)benzoyl)piperidin-4-yl)methoxy)phenyl)-2-phenylacetate] | < 0.3 | < 0.3
17 | O=C(NCCCOc1cccc([C@](O)(C(=O)OCC2CCN(Cc3ccccc3)CC2)c2ccccc2)c1)c1ccc(CNC[C@H](O)c2ccc(O)c3[nH]c(=O)ccc23)cc1 [Compound 32, (S)-(1-benzylpiperidin-4-yl)methyl 2-hydroxy-2-(3-(3-(4-((((R)-2-hydroxy-2-(8-hydroxy-2-oxo-1,2-dihydroquinolin-5-yl)ethyl)amino)methyl)benzamido)propoxy)phenyl)-2-phenylacetate] | 0.3 to 3 | < 0.3
18 | COc1cc(C(=O)NCCCOc2cccc([C@](O)(C(=O)OCC3CCN(Cc4ccccc4)CC3)c3ccccc3)c2)ccc1CNC[C@H](O)c1ccc(O)c2[nH]c(=O)ccc12 [Compound 32A, (S)-(1-benzylpiperidin-4-yl)methyl 2-hydroxy-2-(3-(3-(4-((((R)-2-hydroxy-2-(8-hydroxy-2-oxo-1,2-dihydroquinolin-5-yl)ethyl)amino)methyl)-3-methoxybenzamido)propoxy)phenyl)-2-phenylacetate] | 0.3 to 3 | < 0.3
19 | COc1cc(CNC[C@H](O)c2ccc(O)c3[nH]c(=O)ccc23)ccc1C(=O)NCCCOc1cccc([C@](O)(C(=O)OCC2CCN(Cc3ccccc3)CC2)c2ccccc2)c1 [Compound 32B, (S)-(1-benzylpiperidin-4-yl)methyl 2-hydroxy-2-(3-(3-(4-((((R)-2-hydroxy-2-(8-hydroxy-2-oxo-1,2-dihydroquinolin-5-yl)ethyl)amino)methyl)-2-methoxybenzamido)propoxy)phenyl)-2-phenylacetate] | < 0.3 | < 0.3
20 | O=C(NCCCOc1cccc([C@](O)(C(=O)OCC2CCN(Cc3ccccc3)CC2)c2ccccc2)c1)c1ccc(CNC[C@H](O)c2ccc(O)c3[nH]c(=O)ccc23)nc1 [Compound 32C, (S)-(1-benzylpiperidin-4-yl)methyl 2-hydroxy-2-(3-(3-(6-((((R)-2-hydroxy-2-(8-hydroxy-2-oxo-1,2-dihydroquinolin-5-yl)ethyl)amino)methyl)nicotinamido)propoxy)phenyl)-2-phenylacetate] | 0.3 to 3 | < 0.3
21 | CCOc1cc(C(=O)NCCCOc2cccc([C@](O)(C(=O)OCC3CCN(Cc4ccccc4)CC3)c3ccccc3)c2)ccc1CNC[C@H](O)c1ccc(O)c2[nH]c(=O)ccc12 [Compound 32D, (S)-(1-benzylpiperidin-4-yl)methyl 2-(3-(3-(3-ethoxy-4-((((R)-2-hydroxy-2-(8-hydroxy-2-oxo-1,2-dihydroquinolin-5-yl)ethyl)amino)methyl)benzamido)propoxy)phenyl)-2-hydroxy-2-phenylacetate] | 0.3 to 3 | < 0.3
